Data published in PubChem BioAssay (NCI).
“And” between values parts separate entries of the source, which are not always exact repeats. Identical values can stand only once.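 Tested at 5 concentrations; 48 h exposure; 96-well plates; endpoints linearly interpolated, else capped at highest concentration. GI50 = concentration required for 50% inhibition of growth. Definition used: TGI = concentration required for complete inhibition of growth.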

Tests used:
Assay in all cases: inhibition of tumour cell growth, NCI panel, 48 h
RXF 393 renal = test system: RXF 393 renal
OVCAR-4 ovarian = test system: OVCAR-4 ovarian
786-0 renal = test system: 786-0 renal
HCT-15 colon = test system: HCT-15 colon
MDA-MB-435 = test system: MDA-MB-435
BT-549 breast = test system: BT-549 breast
T-47D breast = test system: T-47D breast
SF-268 CNS = test system: SF-268 CNS
UO-31 renal = test system: UO-31 renal
SF-295 CNS = test system: SF-295 CNS

Compound | GI50 (RXF 393 renal) | TGI (RXF 393 renal) | GI50 (OVCAR-4 ovarian) | TGI (OVCAR-4 ovarian) | GI50 (786-0 renal) | TGI (786-0 renal) | GI50 (HCT-15 colon) | TGI (HCT-15 colon) | GI50 (MDA-MB-435) | TGI (MDA-MB-435) | GI50 (BT-549 breast) | TGI (BT-549 breast) | GI50 (T-47D breast) | TGI (T-47D breast) | GI50 (SF-268 CNS) | TGI (SF-268 CNS) | GI50 (UO-31 renal) | TGI (UO-31 renal) | GI50 (SF-295 CNS) | TGI (SF-295 CNS)
S=C(N/N=C/c1ccccn1)Nc1ccccn1 | 0.485 µM | 4.15 µM | 0.477 µM | 62.2 µM | 2.58 µM | 36.4 µM | 0.575 µM | > 100 µM | 3.86 µM | > 100 µM | 1.99 µM | > 100 µM | 1.93 µM | 90.7 µM | 2.29 µM | > 100 µM | 1.01 µM | > 100 µM |  | 
CC1(C)N=C(N)N=C(N)N1c1cc(Cl)ccc1Cl | > 100 µM | > 100 µM | 86.8 µM | > 100 µM | > 100 µM | > 100 µM | > 100 µM | > 100 µM | > 100 µM | > 100 µM | > 100 µM | > 100 µM | > 100 µM | > 100 µM | > 100 µM | > 100 µM | > 100 µM | > 100 µM | > 100 µM | > 100 µM
CN(C)CCCNC(=O)c1cc(NC(=O)c2cc(NC(=O)c3cc(NC(=O)CCc4c[nH]c5ccccc45)cn3C)cn2C)cn1C | > 100 µM | > 100 µM | 88.5 µM | > 100 µM | > 100 µM | > 100 µM | > 100 µM | > 100 µM | > 100 µM | > 100 µM | > 100 µM | > 100 µM |  |  | > 100 µM | > 100 µM | > 100 µM | > 100 µM | > 100 µM | > 100 µM
CCOC(=O)Oc1c(OC)cc(C(=O)O[C@@H]2C[C@@H]3CN4CCc5c([nH]c6cc(OC)ccc56)[C@H]4C[C@@H]3[C@H](C(=O)OC)[C@H]2OC)cc1OC | 5.03 µM | 19.1 µM | 4.72 µM | 19.8 µM | 9.62 µM | 25.3 µM | 2.86 µM | 13.2 µM | 8.33 µM | 23.9 µM | 9.08 µM | 24.1 µM | 2.97 µM | 20.1 µM | 8.07 µM | 27.5 µM | 5.18 µM | > 100 µM | 10.2 µM | 31.4 µM
O=[N+]([O-])/C=C/c1c[nH]c2ccccc12 | 19.5 µM | 35.1 µM | 12.4 µM | 26.8 µM | 13.5 µM | 27.2 µM | 18.2 µM | 45.7 µM | 2.15 µM | 5.06 µM | 14.1 µM | 27.5 µM | 15 µM | 37.7 µM | 16 µM | 40.5 µM | 13.4 µM | 27.2 µM | 14 µM | 30.6 µM
COc1ccc(-c2cn[nH]c2-c2cc(OC)c(OC)c(OC)c2)cc1N | 0.0247 µM | > 100 µM | 0.013 µM and 0.0877 µM | > 100 µM | < 0.01 µM and 0.0611 µM | 86.5 µM and > 56.6 µM | < 0.01 µM and 0.0298 µM | > 100 µM | < 0.01 µM | < 0.01 µM and 0.0309 µM | < 0.01 µM and 0.0374 µM |  | 17.1 µM and 25 µM | 77.4 µM and > 100 µM |  | > 100 µM | 0.191 µM and 0.118 µM | > 100 µM | < 0.01 µM and 0.0134 µM | > 100 µM
O=C(NOCC1CC1)c1ccc(F)c(F)c1Nc1ccc(I)cc1Cl | 2.11 µM | 8.95 µM | 1.81 µM | 17.7 µM | 2.7 µM | > 35.1 µM | 1.57 µM | > 32.7 µM | 0.298 µM | > 55.5 µM | 3.39 µM | > 100 µM | 3.15 µM | > 52.3 µM | 2.82 µM | > 100 µM | 1.23 µM | 6.62 µM | 2.63 µM | 44.6 µM
O=C1c2ccccc2-c2c1c1ccccc1c(=O)n2CCNCCNCCn1c2c(c3ccccc3c1=O)C(=O)c1ccccc1-2 | 0.114 µM | 10.3 µM | 1.43 µM | 14.9 µM | 0.0267 µM | 2.37 µM | 0.0545 µM | 1.31 µM | 0.97 µM | 19.6 µM | 3.47 µM | 17.4 µM | 18.1 µM | 41.5 µM | 0.241 µM | 10 µM | 0.519 µM |  | 0.0917 µM | 10.8 µM
CC1=Cc2cc3[n-]c(cc4nc(cc5[n-]c(cc1n2)cc5C)C(C)=C4CCC(=O)O)c(CCC(=O)O)c3C.[Pd+2] | 17.9 µM | > 37.9 µM |  | > 46.8 µM | > 21.8 µM | > 49.6 µM | 18.4 µM | 42.5 µM | 68.9 µM | > 100 µM | 4.89 µM | > 100 µM | > 100 µM | > 100 µM | 20.6 µM | 47.7 µM | 9.73 µM | 21.5 µM | 17.5 µM | 36.3 µM
COC(=O)Nc1nc2ccccc2c(=O)[nH]1 |  | > 100 µM |  | > 100 µM |  | > 100 µM |  | > 100 µM |  |  |  | > 100 µM |  | > 100 µM |  | > 100 µM |  | > 100 µM |  | > 100 µM
CNC(=O)c1cccc(-c2ccc3c(N4CCOC[C@@H]4C)nc(N4CCOC[C@@H]4C)nc3n2)c1 | 0.0488 µM and 0.06 µM and 0.028 µM | 0.47 µM and 0.37 µM and 0.337 µM |  |  | 0.229 µM and 0.252 µM | > 32.8 µM | 0.0909 µM and 0.267 µM and 0.16 µM | > 100 µM | 0.0925 µM and 0.204 µM and 0.147 µM | 1.8 µM and 1.34 µM and 1.27 µM | 0.0436 µM and 0.0953 µM and 0.0614 µM | 1.38 µM and 1.08 µM and 0.648 µM | 0.0168 µM and 0.0287 µM and 0.0186 µM | 0.246 µM and 0.212 µM and 0.103 µM | 0.0653 µM and 0.209 µM and 0.212 µM | 10.5 µM and > 6.59 µM and > 100 µM | 0.0278 µM and 0.0604 µM and 0.0328 µM |  | 0.0494 µM and 0.123 µM and 0.0336 µM | 0.392 µM and 0.795 µM and 0.22 µM
C=C1C(=O)OC2CC3(CO3)C3C(O)C(O)CC3(C)CC12 (stereo not given) |  | 31.9 µM |  | > 100 µM |  | > 100 µM |  | 34.1 µM |  | 83.1 µM |  | 33.9 µM |  | > 100 µM |  | > 100 µM |  |  |  | > 100 µM
COc1ccc(/C=C\c2cc(OC)c(OC)c(OC)c2)cc1OCC(=O)Nc1nc2ccc(C(F)(F)F)cc2s1 |  |  | 4.66 µM | > 100 µM | 6.69 µM | > 100 µM | 3.24 µM | > 100 µM | 1.84 µM | 5.91 µM | 5.23 µM | > 100 µM | 4.79 µM | > 100 µM | 3.85 µM | 48.6 µM | 3.59 µM | > 100 µM | 3.36 µM | > 100 µM
